Laboratory results reported in US8748608B2, “4-phenylpiperazine derivatives with functionalized linkers as dopamine D3 receptor selective ligands and methods of use” (The United States of America as Represented by the …, priority 2007, dated 2014).
Where a name gives a salt, the structure may show the parent alone. Read-outs that look alike come from different tables or passages of the source.

What was measured:
[1] = biological target: human dopamine D2-long (D2) receptor (Homo sapiens (Human), UniProt P14416); assay: Human D2-like receptor competition binding in HEK cells, D2; details: hD2L
From the text: (§1) Human dopamine D2-long (D2) and D3 (D3) receptors were expressed in HEK cells. In brief, stably transfected HEK cells expressing the human D2-long and the D3 dopamine receptor were developed using the pIRES bicistronic expression vector (CLONTECH; Palo Alto, Calif.). […] For comparison, human dopamine D4 (D4) receptors were obtained from HEK 293 cells stably transfected with a PCR product of a human cDNA coding for the D4.4 form of the human D4 dopamine receptor.
(§2) The procedures to determine the binding affinities at the human dopamine D2-like receptors, the binding affinities at the serotonin 5HT1A, 5HT2A and 5HT2c receptors and functional mitogenesis assay are known in the art. […] Both of these references are incorporated by reference.

[2] = biological target: human dopamine D3 receptor (Homo sapiens (Human), UniProt P35462); assay: Human D2-like receptor competition binding in HEK cells, D3; details: for D2/D3: ratio of Ki at D2 over Ki at D3
From the text: as §1, §2

[3] = biological target: D2 receptor (human) in CHOp-cells (Homo sapiens (Human), UniProt P14416); assay: D2 inhibition of quinpirole stimulation of mitogenesis (antagonist assay); type: cell-based; details: inhibition of 30 nM quinpirole stimulated mitogenesis, read-out: IC50 ± S.E.M., D2
Protocol: (§3) The cells were incubated at 37° C. in α-MEM with 10% FBS, 0.05% penicillin-streptomycin, and 200 μg/mL of G418. After 48 hours, the cells were rinsed twice with serum-free α-MEM and incubated for 24 hours at 37° C. In the functional assay for agonism, the medium was removed and replaced with 90 μl of serum-free α-MEM and 10 μl of test compound in sterile water; in the antagonist assay, the test compound was diluted in sterile water plus 30 nM quinpirole. After another 24-hour incubation at 37° C., 0.25 μCi of [^3H]thymidine was added to each well and the plates were further incubated for 2 hours at 37° C. The cells were then trypsinized, and the plates were filtered and counted as usual in the art. Quinpirole was run on every plate as an internal standard.
as §2

[4] = biological target: T1, human dopamine D3 receptors in CHO cells (Homo sapiens (Human), UniProt P35462); assay: D3 inhibition of quinpirole stimulation of mitogenesis (antagonist assay); type: cell-based; details: inhibition of 30 nM quinpirole stimulated mitogenesis, CHOp cells; read-out: IC50 ± S.E.M., D3
Protocol: as §3, §2

[5] = biological target: human D4.4 dopamine receptor (Homo sapiens (Human), UniProt P21917); assay: Human D2-like receptor competition binding in HEK cells, D4; details: for Ki: HEK 293 cells, hD4.4; for D4/D3 Ki ratio: head printed D4/D2, values correspond to D4 Ki over D3 Ki
From the text: as §1, §2

[6] = biological target: T1, human dopamine D3 receptors in CHO cells; assay: D3 stimulation of mitogenesis (agonist assay); type: cell-based; details: CHOp cells; for EC50: read-out: partial agonist activity: EC50, D3 (converted)
Protocol: as §3
(§4) The procedures to determine the binding affinities at the human dopamine D2-like receptors, the binding affinities at the serotonin 5HT1A, 5HT2A and 5HT2c receptors and functional mitogenesis assay are known in the art. See J. Med. Chem. 2005, 48, 839-848. See also, NIDA Research Monograph #178, Proceedings of the College of Drug Dependence, p. 440-466, 1998. Both of these references are incorporated by reference.

[7] = biological target: serotonin 5HT1A receptor (Homo sapiens (Human), UniProt P08908); assay: Serotonin receptor binding, 5HT1A; details: ratio of affinities
From the text: as §4

[8] = biological target: serotonin 5HT2A receptor (Homo sapiens (Human), UniProt P28223); assay: Serotonin receptor binding, 5HT2A; details: ratio of affinities
From the text: as §2

[9] = biological target: serotonin 5HT2c receptor (Homo sapiens (Human), UniProt P28335); assay: Serotonin receptor binding, 5HT2c; details: ratio of affinities, 5HT2c over D3
From the text: as §2

[10] = HEK cells, hD3, read-out: D3 Ki
[11] = Table 3, unit inferred, with spread, read-out: D3 binding affinity

human dopamine D2-long (D2) receptor, sequence (P14416 whole entry): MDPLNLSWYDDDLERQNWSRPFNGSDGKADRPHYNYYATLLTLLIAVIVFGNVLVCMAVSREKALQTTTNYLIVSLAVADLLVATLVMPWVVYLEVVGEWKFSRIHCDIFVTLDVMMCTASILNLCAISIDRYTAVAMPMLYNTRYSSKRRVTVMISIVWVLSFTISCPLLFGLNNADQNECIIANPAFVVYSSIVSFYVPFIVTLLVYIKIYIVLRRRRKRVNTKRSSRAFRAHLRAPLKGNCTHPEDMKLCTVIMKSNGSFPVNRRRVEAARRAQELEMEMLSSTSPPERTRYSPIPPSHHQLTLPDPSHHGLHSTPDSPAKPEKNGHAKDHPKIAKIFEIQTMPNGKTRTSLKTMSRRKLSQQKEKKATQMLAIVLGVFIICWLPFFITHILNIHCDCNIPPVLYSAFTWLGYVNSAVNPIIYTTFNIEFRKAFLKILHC
human dopamine D3 receptor, sequence (P35462 whole entry): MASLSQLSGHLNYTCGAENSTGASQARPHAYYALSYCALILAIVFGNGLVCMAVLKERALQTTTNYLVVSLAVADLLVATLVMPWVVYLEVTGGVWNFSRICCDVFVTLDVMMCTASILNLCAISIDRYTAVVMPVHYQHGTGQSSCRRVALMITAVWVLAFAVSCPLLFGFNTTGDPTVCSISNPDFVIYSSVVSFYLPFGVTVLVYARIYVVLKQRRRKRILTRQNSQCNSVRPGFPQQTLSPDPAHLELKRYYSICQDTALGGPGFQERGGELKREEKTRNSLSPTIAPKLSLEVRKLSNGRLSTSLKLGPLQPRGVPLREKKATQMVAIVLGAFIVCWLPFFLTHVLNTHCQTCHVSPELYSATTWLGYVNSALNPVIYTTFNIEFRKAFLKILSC
T1 sequence (P35462 whole entry): as above
human D4.4 dopamine receptor, sequence (P21917 whole entry): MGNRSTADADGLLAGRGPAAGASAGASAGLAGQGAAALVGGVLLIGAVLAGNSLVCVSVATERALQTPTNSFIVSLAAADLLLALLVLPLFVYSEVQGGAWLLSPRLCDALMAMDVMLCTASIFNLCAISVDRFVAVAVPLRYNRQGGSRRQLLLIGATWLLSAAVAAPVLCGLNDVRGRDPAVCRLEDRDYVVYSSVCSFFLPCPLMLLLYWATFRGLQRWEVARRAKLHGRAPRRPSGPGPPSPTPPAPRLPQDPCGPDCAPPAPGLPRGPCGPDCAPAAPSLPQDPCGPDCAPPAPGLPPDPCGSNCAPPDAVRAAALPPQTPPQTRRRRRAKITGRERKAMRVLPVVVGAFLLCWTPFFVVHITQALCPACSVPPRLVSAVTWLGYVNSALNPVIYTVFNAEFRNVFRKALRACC
serotonin 5HT2c receptor, sequence (P28335 33-458): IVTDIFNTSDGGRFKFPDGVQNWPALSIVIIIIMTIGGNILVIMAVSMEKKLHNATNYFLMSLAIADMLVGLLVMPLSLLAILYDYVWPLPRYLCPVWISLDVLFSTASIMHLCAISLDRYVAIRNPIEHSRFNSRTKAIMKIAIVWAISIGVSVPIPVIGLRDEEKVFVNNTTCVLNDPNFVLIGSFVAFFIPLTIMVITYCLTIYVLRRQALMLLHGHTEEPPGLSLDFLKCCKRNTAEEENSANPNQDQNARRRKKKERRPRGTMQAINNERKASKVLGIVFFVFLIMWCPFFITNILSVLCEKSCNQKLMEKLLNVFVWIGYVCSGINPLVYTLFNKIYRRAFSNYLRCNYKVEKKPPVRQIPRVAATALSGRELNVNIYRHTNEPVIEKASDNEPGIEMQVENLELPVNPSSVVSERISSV
serotonin 5HT1A receptor, sequence (P08908 whole entry): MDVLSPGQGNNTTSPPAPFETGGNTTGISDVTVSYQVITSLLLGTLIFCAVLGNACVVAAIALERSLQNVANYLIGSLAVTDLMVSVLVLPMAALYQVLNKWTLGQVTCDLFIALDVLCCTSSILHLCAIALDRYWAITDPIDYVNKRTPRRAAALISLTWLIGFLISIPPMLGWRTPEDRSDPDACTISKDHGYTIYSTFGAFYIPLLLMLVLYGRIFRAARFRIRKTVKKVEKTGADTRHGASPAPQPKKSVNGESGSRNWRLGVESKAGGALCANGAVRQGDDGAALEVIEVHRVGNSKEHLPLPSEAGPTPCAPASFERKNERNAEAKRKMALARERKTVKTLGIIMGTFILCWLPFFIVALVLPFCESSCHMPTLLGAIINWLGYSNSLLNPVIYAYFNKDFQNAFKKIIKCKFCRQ
D2 receptor (human) in CHOp-cells, sequence (P14416 whole entry): as the sequence (P14416 whole entry) above
serotonin 5HT2A receptor, sequence (P28223 whole entry): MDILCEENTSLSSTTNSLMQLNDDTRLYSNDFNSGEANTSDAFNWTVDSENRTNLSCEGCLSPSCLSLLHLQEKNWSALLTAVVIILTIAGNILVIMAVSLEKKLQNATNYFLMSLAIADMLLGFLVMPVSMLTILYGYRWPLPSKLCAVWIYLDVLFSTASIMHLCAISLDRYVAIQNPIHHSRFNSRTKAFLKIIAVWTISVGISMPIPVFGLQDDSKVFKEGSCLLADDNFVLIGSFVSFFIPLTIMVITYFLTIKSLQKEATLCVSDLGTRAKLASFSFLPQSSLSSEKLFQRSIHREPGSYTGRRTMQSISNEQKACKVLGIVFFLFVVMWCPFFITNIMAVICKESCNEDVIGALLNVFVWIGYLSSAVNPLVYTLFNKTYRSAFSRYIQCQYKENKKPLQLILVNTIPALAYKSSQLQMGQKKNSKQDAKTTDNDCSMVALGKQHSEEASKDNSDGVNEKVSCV

SMILES | Ki [1] | Ki [2, 10] | D2/D3 [2] | also measured
COc1ccccc1N1CCN(CCCCNC(=O)c2ccc3c(c2)Cc2ccccc2-3)CC1 (as salt: hydrochloride) [Compound 7, N-(4-(4-(2-Methoxyphenyl)piperazin-1-yl)butyl)-9H-fluorene-2-carboxamide] | – | – | – | melting point: 208 to 210 °C
COc1ccccc1N1CCN(C/C=C/CNC(=O)c2ccc(-c3ccccn3)cc2)CC1 (as salt: hydrochloride) [Compound 14, N-(4-(4-(2-Methoxy-phenyl)-piperazin-1-yl)-trans-but-2-enyl)-4-pyridin-2-yl-benzamide] | – | – | – | melting point: 168 to 170 °C
COc1ccccc1N1CCN(C/C=C/CNC(=O)c2ccc3c(c2)Cc2ccccc2-3)CC1 (as salt: hydrochloride) [Compound 15, N-(4-(4-(2-methoxyphenyl)piperazin-1-yl)-trans-but-2-enyl)-9H-fluorene-2-carboxamide] | – | – | – | melting point: 224 to 226 °C
O=C(NC/C=C/CN1CCN(c2cccc(Cl)c2Cl)CC1)c1ccc(-c2cccc(=O)[nH]2)cc1 (as salt: oxalate) [Compound 9, N-(4-(4-(2,3-Dichloro-phenyl)-piperazin-1-yl)-trans-but-2-enyl)-4-(6-oxo-1,6-dihydro-pyridin-2-yl)-benzamide] | – | – | – | melting point: 153 to 154 °C
Cc1cccc(-c2ccc(C(=O)NC/C=C/CN3CCN(c4cccc(Cl)c4Cl)CC3)cc2)n1 (as salt: oxalate) [Compound 10, N-(4-(4-(2,3-Dichloro-phenyl)-piperazin-1-yl)-trans-but-2-enyl)-4-(6-methyl-pyridin-2-yl)-benzamide] | – | – | – | melting point: 125 to 126 °C
O=C(NC/C=C/CN1CCN(c2cccc(Cl)c2Cl)CC1)c1ccc(-c2cccc[n+]2[O-])cc1 (as salt: oxalate) [Compound 12, N-(4-(4-(2,3-Dichloro-phenyl)-piperazin-1-yl)-trans-but-2-enyl)-4-(pyridin-N-oxide-2-yl)-benzamide] | – | – | – | melting point: 153 to 154 °C
O=C(NCCC(O)CN1CCN(c2cccc(Cl)c2Cl)CC1)c1ccc2c(c1)Cc1ccccc1-2 (stereo not shown) (as salt: oxalate) [Compound 17] | – | – | – | melting point: 188 to 190 °C
O=C(NC/C=C/CN1CCN(c2cccc(Cl)c2Cl)CC1)c1ccc(-c2cccc(=O)[nH]2)cc1 [Compound 9, N-(4-(4-(2,3-Dichloro-phenyl)-piperazin-1-yl)-trans-but-2-enyl)-4-(6-oxo-1,6-dihydro-pyridin-2-yl)-benzamide] | 23.6 nM | 0.6 nM | – | Ki [2, 11]: 0.6 ± 0.1 nM; IC50 [3]: 41 ± 8 nM
O=C(NC/C=C/C[N+]1([O-])CCN(c2cccc(Cl)c2Cl)CC1)c1ccc(-c2ccccn2)cc1 [Compound 13, 4-(2,3-Dichlorophenyl)-1-(4-(4-(pyridin-2-yl)benzamido)-trans-but-2-enyl)-piperazine 1-oxide] | 1160 nM | 49.2 nM | 24 | –
COc1ccccc1N1CCN(C/C=C/CNC(=O)c2ccc(-c3ccccn3)cc2)CC1 [Compound 14, N-(4-(4-(2-Methoxy-phenyl)-piperazin-1-yl)-trans-but-2-enyl)-4-pyridin-2-yl-benzamide] | – | 2.9 nM | – | Ki [2, 11]: 2.9 ± 1.1 nM; IC50 [4]: 42.6 ± 7.9 nM
COc1ccccc1N1CCN(C/C=C/CNC(=O)c2ccc3c(c2)Cc2ccccc2-3)CC1 [Compound 15, N-(4-(4-(2-methoxyphenyl)piperazin-1-yl)-trans-but-2-enyl)-9H-fluorene-2-carboxamide] | 48.4 nM | – | – | IC50 [3]: 179 ± 48 nM
O=C(NCCC(O)CN1CCN(c2cccc(Cl)c2Cl)CC1)c1ccc2c(c1)Cc1ccccc1-2 (stereo not shown) [Compound 17] | 319 nM | 1.8 nM | 177 | Ki [2, 11]: 1.8 nM; Ki [5]: 16400 nM; D4/D3 Ki ratio [5]: 9110; partial agonist activity: % stimulation, D3 [6]: 26%; EC50 [6]: 42 ± 1.3 nM; 5HT1A/D3 [7]: 1006; 5HT2A/D3 [8]: 303; 5HT2c/D [9]: 1572
COc1ccccc1N1CCN(CC(O)CCNC(=O)c2ccc3c(c2)Cc2ccccc2-3)CC1 (stereo not shown) [Compound 19, N-(3-Hydroxy-4-(4-(2-methoxyphenyl)piperazin-1-yl)-butyl)-9H-fluorene-2-carboxamide] | 249 nM | 1.8 nM | 138 | Ki [5]: 1230 nM; D4/D3 Ki ratio [5]: 683
CC(=O)OC(CCNC(=O)c1ccc(-c2ccccn2)cc1)CN1CCN(c2cccc(Cl)c2Cl)CC1 (stereo not shown) [Compound 20, 1-(4-(2,3-Dichlorophenyl)piperazin-1-yl)-4-(4-(pyridin-2-yl)-benzamido)-butan-2-yl acetate] | 134 nM | 11.7 nM | 11 | Ki [2, 11]: 11.7 ± 1 nM; partial agonist activity: % stimulation, D3 [6]: 47%; EC50 [6]: 3.9 ± 1.4 nM; 5HT1A/D3 [7]: 10; 5HT2A/D3 [8]: 7; 5HT2c/D [9]: 7
O=C(NCC(O)CCN1CCN(c2cccc(Cl)c2Cl)CC1)c1ccc2c(c1)Cc1ccccc1-2 (stereo not shown) [Compound 22, N-(4-(4-(2,3-Dichlorophenyl)piperazin-1-yl)-2-hydroxybutyl)-9H-fluorene-2-carboxamide] | 84 nM | 2.5 nM | 34 | –
COc1ccccc1N1CCN(CCC(O)CNC(=O)c2ccc3c(c2)Cc2ccccc2-3)CC1 (stereo not shown) [Compound 23, N-(4-(4-(2-Methoxyphenyl)piperazin-1-yl)-2-hydroxybutyl)-9H-fluorene-2-carboxamide] | 68.4 nM | 1.3 nM | 53 | –
COc1ccccc1N1CCN(CC(O)CCNC(=O)c2cc3ccccc3[nH]2)CC1 (stereo not shown) [Compound 35] | 249 nM | 1.37 nM | 181 | Ki [5]: 1920 nM; D4/D3 Ki ratio [5]: 1401
O=C(NCC(O)CCN1CCN(c2cccc(Cl)c2Cl)CC1)c1cc2ccccc2[nH]1 (stereo not shown) [Compound 36] | 28.4 nM | 0.26 nM | 109 | –
COc1ccccc1N1CCN(CCC(O)CNC(=O)c2cc3ccccc3[nH]2)CC1 (stereo not shown) [Compound 37] | 52.5 nM | 0.5 nM | 105 | –
CCCOc1ccccc1N1CCN(CC(O)CCNC(=O)c2cc3ccccc3[nH]2)CC1 (stereo not shown) [Compound 38] | 47.1 nM | 62.1 nM | 1 | –
COc1ccccc1N1CCN(CC(O)CCNC(=O)c2cc3ccccc3s2)CC1 (stereo not shown) [Compound 39] | 337 nM | 4.6 nM | 73 | –
O=C(NCCC(O)CN1CCN(c2cccc(Cl)c2Cl)CC1)c1cc2ccccc2o1 (stereo not shown) [Compound 42] | 185 nM | 0.98 nM | 188 | –
COc1ccccc1N1CCN(CC(O)CCNC(=O)c2cc3ccccc3o2)CC1 (stereo not shown) [Compound 43] | 233 nM | 5.4 nM | 43 | –
COc1ccccc1N1CCN(CC(O)CCNC(=O)c2cc3cc(I)ccc3o2)CC1 (stereo not shown) [Compound 44] | 158 nM | 2.2 nM | 71 | –
O=C(NCCC(O)CN1CCN(c2cccc(Cl)c2Cl)CC1)c1cc2cc(I)ccc2o1 (stereo not shown) [Compound 45] | 697 nM | 3.5 nM | 200 | –
O=C(NCCC(O)CN1CCN(c2cccc(Cl)c2Cl)CC1)c1cc2cc(F)ccc2o1 (stereo not shown) [Compound 46] | 245 nM | 1.6 nM | 149 | –
COc1ccccc1N1CCN(CC(O)CCNC(=O)c2cc3cc(F)ccc3o2)CC1 (stereo not shown) [Compound 47] | 180 nM | 0.65 nM | 276 | –
COc1ccc2oc(C(=O)NCCC(O)CN3CCN(c4cccc(Cl)c4Cl)CC3)cc2c1 (stereo not shown) [Compound 48] | 244 nM | 1.3 nM | 185 | –
COc1ccc2oc(C(=O)NCCC(O)CN3CCN(c4ccccc4OC)CC3)cc2c1 (stereo not shown) [Compound 49] | 174 nM | 1 nM | 172 | –
